The results in this text go back to BindingDB's records for doi:10.1016/j.bioorg.2012.01.003 (Institute For Advanced Studies In Basic Sciences (Iasbs), 2012).

In this test the target is Acetylcholinesterase (Electrophorus electricus, UniProt O42275). Put plainly: Inhibition Assay. The settings on record: pH 8; 25 °C. As to the method:
Inhibitory activity of synthesized alpha-unreidophosphonates were determined at 25 C by the colorimetric method of Ellman et al.

pIC50: −log10 of the molar value.

Sequence of Acetylcholinesterase (O42275 whole entry): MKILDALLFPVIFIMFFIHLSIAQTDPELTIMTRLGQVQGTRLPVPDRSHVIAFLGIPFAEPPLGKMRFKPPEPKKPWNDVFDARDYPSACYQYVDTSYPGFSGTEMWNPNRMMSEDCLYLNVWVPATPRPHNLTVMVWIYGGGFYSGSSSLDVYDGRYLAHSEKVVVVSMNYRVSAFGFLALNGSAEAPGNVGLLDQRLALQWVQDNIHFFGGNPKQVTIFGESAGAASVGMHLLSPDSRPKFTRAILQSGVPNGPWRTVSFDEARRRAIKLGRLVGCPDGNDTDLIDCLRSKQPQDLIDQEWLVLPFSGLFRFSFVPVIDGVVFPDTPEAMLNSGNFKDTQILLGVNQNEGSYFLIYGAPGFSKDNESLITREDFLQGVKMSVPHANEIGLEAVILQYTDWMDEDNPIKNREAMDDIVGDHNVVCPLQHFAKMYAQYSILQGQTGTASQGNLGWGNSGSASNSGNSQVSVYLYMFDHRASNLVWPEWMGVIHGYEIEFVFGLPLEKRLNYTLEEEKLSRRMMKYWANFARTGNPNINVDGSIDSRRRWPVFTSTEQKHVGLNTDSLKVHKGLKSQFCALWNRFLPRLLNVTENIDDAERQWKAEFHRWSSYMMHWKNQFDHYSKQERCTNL

Turning to `CCOP(=O)(OCC)C(c1ccccc1)N(C(=O)Nc1ccccc1)c1ccccc1` (stereo not drawn) [Alpha-ureidophosphonate, a], the pIC50 is 3.76. `CCOP(=O)(OCC)C(c1ccc(C(C)C)cc1)N(C(=O)Nc1ccccc1)c1ccccc1` (stereo not drawn) [Alpha-ureidophosphonate, b]: the negative logarithm of the IC50 (pIC50) is 3.64.

For the compound `CCOP(=O)(OCC)C(c1ccc([N+](=O)[O-])cc1)N(C(=O)Nc1ccccc1)c1ccccc1` (stereo not drawn) [Alpha-ureidophosphonate, d], the negative logarithm of the IC50 (pIC50) was 3.09. `CCOP(=O)(OCC)C(c1ccc(C)cc1)N(C(=O)Nc1ccccc1)c1ccccc1` (stereo not drawn) [Alpha-ureidophosphonate, e] had a pIC50 of 3.36. The same measure for `CCOP(=O)(OCC)C(c1ccc(F)cc1)N(C(=O)Nc1ccccc1)c1ccc(OC)cc1` (stereo not drawn) [Alpha-ureidophosphonate, g]: 4.16. As to `CCOP(=O)(OCC)C(c1ccc(C)cc1)N(Cc1ccccc1)C(=O)Nc1ccccc1` (stereo not drawn) [Alpha-ureidophosphonate, i], the pIC50 is 5.65. The same measure for `CCOP(=O)(OCC)C(c1ccc(C)cc1)N(C(=O)Nc1ccccc1)C1CCCCC1` (stereo not drawn) [Alpha-ureidophosphonate, k]: 3.83.

For orientation: pIC50 means −log10 of the IC50, conventionally taken in molar units. Higher therefore signals a low IC50.
